Laboratory results reported in publication PMC12339163, “Combining Plant Bioactives With Antibiotics for Enhanced Antibiofilm Activity Against Uropathogenic Staphylococcus spp. and Cytotoxicity Evaluation” (Advances in Pharmacological and Pharmaceutical Sciences, 2025).
“And” between values parts separate entries of the source, which are not always exact repeats. Identical values can stand only once. Like-named read-outs stand apart in the source and are kept apart here. Values belong to the compound of their own block, whether it stands above or below them.

Columns and labels:
S. aureus biofilm = experiment: Biofilm inhibition assay (MBIC, MTT); format: cell-based, Staphylococcus aureus; conditions: geometric mean, S. aureus (n = 3); for minimal effective concentration: Staphylococcus aureus, 24 h
Experimental: The biofilm formation inhibitory activity of NPs and ATBs was carried out according to the method previously described. A total of 100 µL of bacterial inoculum (1.5 × 10^6 CFU/mL) was used, and 100 µL of each sample was added to the microplate to achieve final concentrations ranging from 0.25 µg/mL to 128 µg/mL for ATBs and from 8 µg/mL to 1024 µg/mL for NPs. Then, the microplate was incubated at 37°C for 24 h. After incubation, the plates were gently emptied and washed three times with a phosphate buffer solution at pH 7.2. Then, the MTT solution (0.5 mg/mL) prepared in PBS was introduced into each well, and the microplate was further incubated at 37°C for 24 h. Untreated wells containing bacterial suspension and MHB supplemented with 1% glucose were considered positive controls, and wells containing only MHB+1% glucose without bacteria were used as blanks. After incubation, the MTT solution was aspirated, then 150 µL of DMSO was introduced to dissolve the formazan crystal formed by viable bacteria, and the optical density (OD) was measured at 570 nm using a microplate reader (VERSA-max). The percentage of biofilm inhibition was calculated using the formula below, and the minimal biofilm inhibitory concentration (MBIC) was recorded as the lowest concentration of NPs or ATBs that inhibited 100% of biofilm:(1) % biofilm inhibition=ODcontrol−ODblank−ODtest−ODblank/ODcontrol−ODblank×100.

[1] = test system: planktonic cells of Staphylococcus epidermidis; experiment: Checkerboard combination assay, planktonic cells; format: cell-based; conditions: planktonic S. epidermidis, mean MIC; for MIC alone, ATB: antibiotic alone; for MIC alone, NPs: natural product alone, in µg/mL
Raw 264.7 macrophages = experiment: Cytotoxicity, MTT assay; format: cell-based; conditions: Raw 264.7, MTT
Experimental: (§1) Two cell lines, including Raw 264.7 macrophages and the urinary epithelial cell line UROtsa obtained from the American Type Culture Collection (Rockville, MD, USA), were used. They were cultured in Dulbecco's modified Eagle's medium (DMEM), which was supplemented with 10% fetal bovine serum (FBS) and 1% penicillin, streptomycin, and fungizone (PSF). They were then grown at 37°C in a humidified environment containing 5% CO2.
(§2) The cytotoxicity of the selected synergistic combinations, as well as the individual constituents of combinations, against the abovementioned cell lines was performed by the MTT assay as previously described. Briefly, cells from each line were harvested in the logarithmic phase using trypsin (0.05% trypsin, 0.02% EDTA in PBS). Cell suspension was diluted with an appropriate growth medium to obtain a cell density of 10^4 cells/well. A 100 µL aliquot of each suspension was seeded into 96-well cell culture plates and incubated at 37°C in an atmosphere of 5% CO2 and 95% relative humidity. After 24 h of incubation, 100 µL of samples (ATBs and NPs) at concentrations varying from 0.01, 0.1, 1, 10, 100, and 1000, as well as the synergistic combinations (C1 to C5), was added to the wells containing the cells. Doxorubicin was used as a positive control. Appropriate controls with an equivalent concentration of DMSO were also included. Plates were incubated for 48 h, then the medium in each well was aspirated, and MTT solution (2 mg/mL in PBS) was diluted 1:10 with fresh medium and added to each well, and the plates were further incubated at 37°C for 4 h. Absorbance was measured on a BioTek microplate reader at 570 nm. The percentage of cell viability was calculated by comparing treated and untreated cells using the equation [39]:(3) cell viability %=ODtest/ODcontrol×100.
(§3) Then, the IC50 values of the samples having shown at least 50% inhibition were calculated by plotting the percentage of inhibition against the concentrations.

[2] = test system: UROtsa urinary epithelial cells; experiment: Cytotoxicity, MTT assay; format: cell-based; conditions: 48 h
Experimental: as §1, §2, §3

[3] = test system: Staphylococcus saprophyticus biofilm; experiment: Checkerboard combination assay, biofilm eradication; format: cell-based
In short: (§4)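 Biofilms preformed for 24 h were washed and exposed to antibiotics (0.0625–128 µg/mL) combined with NPs (4–512 µg/mL) for 24 h at 37°C in checkerboard format. Viability was read by MTT reduction to set MBEC, and FICI was calculated for the combination.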

[4] = test system: Staphylococcus aureus biofilm; experiment: as above; format: cell-based
In short: as §4

[5] = Epithelial cell, read-out: IC50
[6] = S. saprophyticus biofilm eradication, antibiotic alone, mean MBEC
[7] = S. saprophyticus, biofilm eradication, mean
[8] = S. aureus biofilm eradication, antibiotic alone, mean MBEC
[9] = S. aureus, biofilm eradication, mean
[10] = Mus musculus, RAW264.7, 48 h, read-out: IC50

Compound: C=CC1=C(C(=O)O)N2C(=O)[C@@H](NC(=O)/C(=N\OCC(=O)O)c3csc(N)n3)[C@H]2SC1 [Cefixime, cefixime]
- minimal effective concentration (S. aureus biofilm): 64 µg/mL
- MIC alone, ATB [1]: 107 µg/mL
- IC50 (Raw 264.7 macrophages; 48 h): 473.83 µg/mL
- IC50 [2]: — (IC50 > 1000 µg/mL)
- IC50 [2, 5]: > 1000 µg/mL
- MBEC Alone ATB [3, 6]: 48 µg/mL
- MBEC Alone ATB [3, 7]: 48 µg/mL
- MBEC Alone ATB [4, 8]: 42.66 µg/mL

Compound: COc1ccc2cc3[n+](cc2c1OC)CCc1cc2c(cc1-3)OCO2 [Berberine, berberine]
- minimal effective concentration (S. aureus biofilm): 171 µg/mL
- MBEC Alone NPs ([3]; S. saprophyticus biofilm eradication, natural product alone, mean MBEC, listed as Ber): 128 µg/mL and 85.33 µg/mL and 106.66 µg/mL and 170.66 µg/mL
- MBEC Alone NPs [3, 7]: 128 µg/mL
- MBEC Alone NPs [4, 9]: 149.33 µg/mL

Compound: O=c1c(O)c(-c2ccc(O)c(O)c2)oc2cc(O)cc(O)c12 [Quercetin, quercetin]
- minimal effective concentration (S. aureus biofilm): 512 µg/mL
- MIC alone, NPs ([1]; listed as Que): 512 and 362.66

Compound: CC1=CC(=O)c2c(O)cccc2C1=O [Plumbagin, plumbagin]
- minimal effective concentration (S. aureus biofilm): 10.7 µg/mL
- MBEC Alone NPs [3, 7]: 10.66 µg/mL

Compound: CC1(C)S[C@@H]2[C@H](NC(=O)[C@H](N)c3ccc(O)cc3)C(=O)N2[C@H]1C(=O)O [Amoxicillin, amoxicillin]
- minimal effective concentration (S. aureus biofilm): 1.5 µg/mL
- MIC alone, ATB [1]: 26.8 µg/mL
- IC50 (Raw 264.7 macrophages; [10]): > 1000 µg/mL
- IC50 (Raw 264.7 macrophages; 48 h): — (IC50 > 1000 µg/mL)
- IC50 [2]: — (IC50 > 1000 µg/mL)
- IC50 [2, 5]: > 1000 µg/mL
- MBEC Alone ATB [3, 6]: 9.33 µg/mL
- MBEC Alone ATB [4, 8]: 37.33 µg/mL

Compound: NCC[C@H](O)C(=O)N[C@@H]1C[C@H](N)[C@@H](O[C@H]2O[C@H](CN)[C@@H](O)[C@H](O)[C@H]2O)[C@H](O)[C@H]1O[C@H]1O[C@H](CO)[C@@H](O)[C@H](N)[C@H]1O [Amikacin, amikacin]
- minimal effective concentration (S. aureus biofilm): 1.83 µg/mL
- MIC alone, ATB [1]: 1.16 µg/mL
- IC50 (Raw 264.7 macrophages; [10]): > 1000 µg/mL
- IC50 (Raw 264.7 macrophages; 48 h): — (IC50 > 1000 µg/mL)
- IC50 [2]: — (IC50 > 1000 µg/mL)
- IC50 [2, 5]: > 1000 µg/mL
- MBEC Alone ATB [3, 6]: 13.33 µg/mL
- MBEC Alone ATB [4, 8]: 13.33 µg/mL
- MBEC Alone ATB [4, 9]: 13.33 µg/mL

Compound: Cc1nnc(SCC2=C(C(=O)O)N3C(=O)[C@@H](NC(=O)Cn4cnnn4)[C@H]3SC2)s1 [Cefazolin, cefazolin]
- minimal effective concentration (S. aureus biofilm): 4.66 µg/mL
- MIC alone, ATB [1]: 42.7 µg/mL
- IC50 (Raw 264.7 macrophages; [10]): > 1000 µg/mL
- IC50 (Raw 264.7 macrophages; 48 h): 504.26 µg/mL
- IC50 [2]: — (IC50 > 1000 µg/mL)
- IC50 [2, 5]: > 1000 µg/mL
- MBEC Alone ATB [3, 6]: 10.66 µg/mL
- MBEC Alone ATB [3, 7]: 48 µg/mL
- MBEC Alone ATB [4, 8]: 42.66 µg/mL
- MBEC Alone ATB [4, 9]: 42.66 µg/mL

Further lines, with some results ahead:

- MIC alone, NPs [1]: 384
Compound: COc1cc(/C=C/C(=O)CC(=O)/C=C/c2ccc(O)c(OC)c2)ccc1O [Curcumin, curcumin]
- minimal effective concentration (S. aureus biofilm): 107 µg/mL
- IC50 (Raw 264.7 macrophages; [10]): 94.4 µg/mL
- IC50 [2, 5]: 51.9 µg/mL
- MBEC Alone NPs ([3]; S. saprophyticus biofilm eradication, natural product alone, mean MBEC, listed as Cur): 170.66 µg/mL and 213.33 µg/mL
- MBEC Alone NPs ([4]; S. aureus biofilm eradication, natural product alone, mean MBEC, listed as Cur): 128 µg/mL and 149.33 µg/mL and 170.66 µg/mL and 106.66 µg/mL
- MBEC Alone NPs [4, 9]: 277.33 µg/mL

- MIC alone, ATB [1]: 7.33 µg/mL
Compound: NC[C@H]1O[C@H](O[C@H]2[C@H](O)[C@@H](O[C@H]3O[C@H](CO)[C@@H](O)[C@H](N)[C@H]3O)[C@H](N)C[C@@H]2N)[C@H](O)[C@@H](O)[C@@H]1O [Kanamycin, kanamycin]
- MBIC (S. aureus biofilm): 1.08 µg/mL
- IC50 (Raw 264.7 macrophages; 48 h): — (IC50 > 1000 µg/mL)
- IC50 [2]: — (IC50 > 1000 µg/mL)
- MBEC Alone ATB [3, 6]: 10.66 µg/mL
- MBEC Alone ATB [4, 8]: 14.66 µg/mL

- MIC alone, NPs [1]: 426.66
Compound: Cc1ccc(C(C)C)c(O)c1 [Thymol, thymol]
- minimal effective concentration (S. aureus biofilm): 341 µg/mL
- IC50 (Raw 264.7 macrophages; [10]): 442 µg/mL
- IC50 [2, 5]: > 1000 µg/mL
- MBEC Alone NPs [3, 7]: 128 µg/mL

- MIC alone, ATB [1]: 7 µg/mL
Compound: C[C@H]1c2cccc(O)c2C(=O)C2=C(O)[C@]3(O)C(=O)C(C(N)=O)=C(O)[C@@H](N(C)C)[C@@H]3[C@@H](O)[C@@H]21 [Doxycycline, doxycycline]
- minimal effective concentration (S. aureus biofilm): 2.16 µg/mL
- MBEC Alone ATB [3, 6]: 9.33 µg/mL
- MBEC Alone ATB [4, 8]: 16 µg/mL

- MIC alone, NPs ([1]; listed as Gal): 426.66 and 277.33
Compound: O=C(O)c1cc(O)c(O)c(O)c1 [Gallic acid, 3,4,5-trihydroxybenzoic acid]
- minimal effective concentration (S. aureus biofilm): 512 µg/mL
- MBEC Alone NPs ([4]; S. aureus biofilm eradication, natural product alone, mean MBEC): 298.66 µg/mL

- MIC alone, ATB [1]: 32.7 µg/mL
Compound: CC[C@H]1OC(=O)[C@H](C)[C@@H](O[C@H]2C[C@@](C)(OC)[C@@H](O)[C@H](C)O2)[C@H](C)[C@@H](O[C@@H]2O[C@H](C)C[C@H](N(C)C)[C@H]2O)[C@](C)(O)C[C@@H](C)C(=O)[C@H](C)[C@@H](O)[C@]1(C)O [Erythromycin, erythromycin]
- minimal effective concentration (S. aureus biofilm): 42.8 µg/mL
- MBEC Alone ATB [3, 6]: 29.33 µg/mL
- MBEC Alone ATB [3, 7]: 29.33 µg/mL
- MBEC Alone ATB [4, 8]: 44 µg/mL
